Target: T1, FAAH (Homo sapiens, UniProt O00519)
T1 construct: FAAH activity was assayed in the respective homogenates described herein (Rat brain, Mouse brain or Human brain); tissue Analytical Biological Services (ABS), Inc; host or cells: human brain cortex membrane homogenate
T1 sequence (O00519 1-579): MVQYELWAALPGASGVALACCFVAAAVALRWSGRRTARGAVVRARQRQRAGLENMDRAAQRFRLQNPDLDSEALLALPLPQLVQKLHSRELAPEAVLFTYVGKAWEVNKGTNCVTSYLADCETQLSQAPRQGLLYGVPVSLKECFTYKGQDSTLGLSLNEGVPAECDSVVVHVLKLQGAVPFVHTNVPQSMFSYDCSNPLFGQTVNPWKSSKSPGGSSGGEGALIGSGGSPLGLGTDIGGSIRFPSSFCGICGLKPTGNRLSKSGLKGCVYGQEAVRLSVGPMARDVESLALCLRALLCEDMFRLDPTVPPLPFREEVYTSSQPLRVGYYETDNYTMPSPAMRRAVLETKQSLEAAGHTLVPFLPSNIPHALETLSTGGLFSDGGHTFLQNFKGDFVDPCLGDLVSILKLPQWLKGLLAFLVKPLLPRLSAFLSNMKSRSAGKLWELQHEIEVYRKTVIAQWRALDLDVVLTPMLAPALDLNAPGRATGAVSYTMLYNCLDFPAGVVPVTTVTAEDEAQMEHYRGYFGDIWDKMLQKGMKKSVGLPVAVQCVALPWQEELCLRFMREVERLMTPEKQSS
Experiment: FAAH inhibition, human brain membrane homogenate assay
Assay type: biochemical
Conditions: average; FAAH extracted from human brain homogenate; read-out: Human brain FAAH Extract IC50
Experimental: About 10 g of frozen normal human brain cortex tissue was obtained (e.g., from Analytical Biological Services (ABS), Inc. (Wilmington, Del.)). The brain tissue was thawed and transferred to a large ceramic mortar on ice. 50 mL of ice-cold “homogenization buffer” (20 mM HEPES buffer, pH 7.0, with 1 mM MgCl2) was added to the mortar and the tissue was homogenized with a pestle. The homogenate was centrifuged at 36,500 g for 20 minutes at 4° C. The supernatants were discarded and the pellets were re-suspended in homogenization buffer and centrifuged as before. The supernatants were again discarded and the pellets were re-suspended in 30 mL homogenization buffer and incubated in a 37° C. water bath for 20 minutes. The homogenate was then centrifuged as before. The supernatant was discarded and the membrane pellets were re-suspended in 30 mL “resuspension buffer” (50 mM Tris-HCl buffer, pH 7.4, containing 1 mM EDTA and 3 mM MgCl2). A Bradford Protein assay was performed to determine protein concentration. The protein was aliquotted into screw cap Cryo tubes each containing ˜200 μL, flash frozen in liquid nitrogen and stored at −80° C. until used for the assay.
FAAH activity was assayed in the respective homogenates described herein (Rat brain, Mouse brain or Human brain) for certain exemplary substrate compounds using a modification of the method of Omeir et al. (1995 Life Sci 56:1999) and Fowler et al. (1997 J. Pharmacol Exp Ther 283:729). For assay of FAAH activity in rat brain membrane (RBM) homogenates, RBM homogenates (7 μg protein in 20 μL final volume of 10 mM Tris pH 6.5) were mixed with 180 μL of a mixture of the following: 2.0 μM unlabelled anandamide, 0.03 μCi radio labeled anandamide [ethanolamine 1-^3H] (40-60 Cis/mmol, product number ART-626, American Radiolabeled Chemicals, St. Louis, Mo.), 1 mg/mL Bovine Serum Albumin (fatty acid-free BSA, electrophoresis grade, Sigma, St. Louis, Mo.), 10 mM Tris-HCl (pH 6.5), and 1 mM EDTA in the presence and absence of test compounds (vehicle was DMSO at a final concentration of 1%) and incubated for 10 minutes at 37° C. Samples were placed on ice to terminate the reactions.
^3H-ethanolamine product and un-reacted ^3H-anandamide substrate were then separated either: (1) by using chloroform/methanol extraction or (2) by passing the reaction mixture through a glass fiber filter containing activated charcoal. Samples were extracted with chloroform/methanol by adding 0.4 mL of chloroform/methanol (1:1 v/v), vigorously mixing the samples, and separating the aqueous and organic phases by centrifugation. Radioactivity (corresponding to FAAH-catalyzed breakdown of ^3H-anandamide) found in aliquots (0.2 mL) of the aqueous phase was determined by liquid scintillation counting with quench correction. IC50 values were determined as described by Jonsson et al. (2001 Br. J. Pharmacol. 133:1263). Alternatively, reactions were purified using a modification of the solid-phase extraction method described by Wilson et al (2003 Anal. Biochem. 318:270). This method was modified as follows: after reactions were incubated at 37° C. for 10 minutes and chilled on ice, the reaction mixtures were acidified by adding 10 μL of sodium phosphate solution [0.5M (pH 2.0)]. Next, 90 μL aliquots of the acidified reaction mixtures were applied to activated charcoal (that had been previously washed with methanol as described by Wilson et al. (supra)) containing 80 μL of water on top of a glass fiber filter, centrifuged, and the radioactivity in the eluate was counted as described previously by Wilson et al. (supra).
Table 1 provides activity data for certain compounds tested for inhibition of FAAH using the FAAH rat, mouse and human brain homogenate assays. […]

Q: How did the IC50 turn out when `Cc1c(C(=O)C(=O)Nc2cccc(Cl)c2)c2ccsc2n1Cc1ccc(Cl)cc1` [Compound I-08, 2-(6-(4-chlorobenzyl)-5-methyl-6H-thieno[2,3-b]pyrrol-4-yl)-N-(3-chlorophenyl)-2-oxoacetamide] was run?
A: 797 nM

Q: `COc1cc(NC(=O)C(=O)c2c(C)n(Cc3ccc(Cl)cc3)c3sccc23)ccn1` [Compound I-09, 2-(6-(4-chlorobenzyl)-5-methyl-6H-thieno[2,3-b]pyrrol-4-yl)-N-(2-methoxypyridin-4-yl)-2-oxoacetamide] was tested. Which IC50 did it give?
A: 31 nM

Q: How did the IC50 turn out when `Cc1c(C(=O)C(=O)Nc2cccc(Cl)c2)c2c(n1Cc1ccc(Cl)cc1)CCCCCC2` [Compound I-10, 2-(1-(4-chlorobenzyl)-2-methyl-4,5,6,7,8,9-hexahydro-1H-cycloocta[b]pyrrol-3-yl)-N-(3-chlorophenyl)-2-oxoacetamide] was run?
A: 605 nM

Q: How did the IC50 turn out when `COc1cc(NC(=O)C(=O)c2c3c(n(Cc4ccc(Cl)cc4)c2C)CCCCCC3)ccn1` [Compound I-11, 2-(1-(4-chlorobenzyl)-2-methyl-4,5,6,7,8,9-hexahydro-1H-cycloocta[b]pyrrol-3-yl)-N-(2-methoxypyridin-4-yl)-2-oxoacetamide] was run?
A: 80 nM

Q: Which IC50 does the source give for `Cc1c(C(=O)C(=O)Nc2cccc(Cl)c2)c2c(n1Cc1ccc(Cl)cc1)CCCCC2` [Compound I-12, 2-(1-(4-chlorobenzyl)-2-methyl-1,4,5,6,7,8-hexahydrocyclohepta[b]pyrrol-3-yl)-N-(3-chlorophenyl)-2-oxoacetamide] here?
A: 234 nM

Q: With `COc1cc(NC(=O)C(=O)c2c3c(n(Cc4ccc(Cl)cc4)c2C)CCCCC3)ccn1` [Compound I-13, 2-(1-(4-chlorobenzyl)-2-methyl-1,4,5,6,7,8-hexahydrocyclohepta[b]pyrrol-3-yl)-N-(2-methoxypyridin-4-yl)-2-oxoacetamide] as the compound, how does the IC50 read?
A: 9 nM

Q: `Cc1c(C(=O)C(=O)Nc2cccc(Cl)c2)c2c(n1Cc1ccc(Cl)cc1)CCC(C)(C)C2` [Compound I-14, 2-(1-(4-chlorobenzyl)-2,5,5-trimethyl-4,5,6,7-tetrahydro-1H-indol-3-yl)-N-(3-chlorophenyl)-2-oxoacetamide] was tested. Which IC50 did it give?
A: 202 nM

Q: `COc1cc(NC(=O)C(=O)c2c3c(n(Cc4ccc(Cl)cc4)c2C)CCC(C)(C)C3)ccn1` [Compound I-15, 2-(1-(4-chlorobenzyl)-2,5,5-trimethyl-4,5,6,7-tetrahydro-1H-indol-3-yl)-N-(2-methoxypyridin-4-yl)-2-oxoacetamide] was tested. Which IC50 did it give?
A: 94 nM

Q: For `Cc1c(C(=O)C(=O)Nc2cccc(Cl)c2)c2c(n1Cc1ccc(Cl)cc1)CCCC2` [Compound I-16, 2-(1-(4-chlorobenzyl)-2-methyl-4,5,6,7-tetrahydro-1H-indol-3-yl)-N-(3-chlorophenyl)-2-oxoacetamide], which IC50 is on record?
A: 119 nM

Q: `COc1cc(NC(=O)C(=O)c2c3c(n(Cc4ccc(Cl)cc4)c2C)CCCC3)ccn1` [Compound I-18, 2-(1-(4-chlorobenzyl)-2-methyl-4,5,6,7-tetrahydro-1H-indol-3-yl)-N-(2-methoxypyridin-4-yl)-2-oxoacetamide] was tested. Which IC50 did it give?
A: 21 nM

Q: Which IC50 does the source give for `COc1cc(NC(=O)C(=O)c2c(-c3ccccc3)c(C)n(Cc3ccc(Cl)cc3)c2C)ccn1` [Compound I-19, 2-(1-(4-chlorobenzyl)-2,5-dimethyl-4-phenyl-1H-pyrrol-3-yl)-N-(2-methoxypyridin-4-yl)-2-oxoacetamide] here?
A: > 5000 nM

Q: For `Cc1c(C(=O)C(=O)Nc2cccc(Cl)c2)c(-c2ccccc2)c(C)n1Cc1ccc(Cl)cc1` [Compound I-20, 2-(1-(4-chlorobenzyl)-2,5-dimethyl-4-phenyl-1H-pyrrol-3-yl)-N-(3-chlorophenyl)-2-oxoacetamide], which IC50 is on record?
A: > 5000 nM

Q: `COc1cc(NC(=O)C(=O)c2cc(C)n(Cc3ccc(Cl)cc3Cl)c2C)ccn1` [Compound I-21, 2-(1-(2,4-dichlorobenzyl)-2,5-dimethyl-1H-pyrrol-3-yl)-N-(2-methoxypyridin-4-yl)-2-oxoacetamide] was tested. Which IC50 did it give?
A: 1010 nM

Q: With `COc1ccc(Cn2c(C)cc(C(=O)C(=O)Nc3ccnc(OC)c3)c2C)cc1` [Compound I-22, 2-(1-(4-methoxybenzyl)-2,5-dimethyl-1H-pyrrol-3-yl)-N-(2-methoxypyridin-4-yl)-2-oxoacetamide] as the compound, how does the IC50 read?
A: 4110 nM

Q: `COc1cc(NC(=O)C(=O)c2cc(C)n(Cc3ccc(Cl)cc3)c2-c2ccccc2)ccn1` [Compound I-23, 2-(1-(4-chlorobenzyl)-5-methyl-2-phenyl-1H-pyrrol-3-yl)-N-(2-methoxypyridin-4-yl)-2-oxoacetamide] was tested. Which IC50 did it give?
A: 2560 nM

Q: `Cc1cc(C(=O)C(=O)Nc2cccc(Cl)c2)c(-c2ccccc2)n1Cc1ccc(Cl)cc1` [Compound I-24, 2-(1-(4-chlorobenzyl)-5-methyl-2-phenyl-1H-pyrrol-3-yl)-N-(3-chlorophenyl)-2-oxoacetamide] was tested. Which IC50 did it give?
A: > 50000 nM

Q: Which IC50 does the source give for `Cc1c(C(=O)C(=O)Nc2cccc(Cl)c2)cc(-c2ccccc2)n1Cc1ccc(Cl)cc1` [Compound I-25, 2-(1-(4-chlorobenzyl)-2-methyl-5-phenyl-1H-pyrrol-3-yl)-N-(3-chlorophenyl)-2-oxoacetamide] here?
A: > 50000 nM

Q: How did the IC50 turn out when `Cc1c(C(=O)C(=O)Nc2ccncc2)cc(-c2ccccc2)n1Cc1ccc(Cl)cc1` [Compound I-26, 2-(1-(4-chlorobenzyl)-2-methyl-5-phenyl-1H-pyrrol-3-yl)-2-oxo-N-(pyridin-4-yl)acetamide] was run?
A: > 50000 nM

— US20130109721A1, “FAAH Inhibitors” (Ironwood Pharmaceuticals, Inc., priority 2009, published 2013)
